Values of other authors as cited in patent EP1688139A1 (Board of Regents of the University of Nebraska, priority 2000, dated 2002).

System: 3-nitropropionic acid
Details: rats, diet supplemented with creatine for 2 weeks, exposed to 3-nitropropionic acid

N-aminoiminomethyl-N-methylglycine [Creatine]
less lesion volume than nonsupplemented animals: 83%
